“And” between values parts separate entries of the source, which are not always exact repeats. Equal entries are not always repeated.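 Tested at 5 concentrations; 48 h exposure; 96-well plates; endpoints linearly interpolated, else capped at highest concentration. Here, GI50 denotes the concentration required for 50% inhibition of growth. At the TGI there is no net growth.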
Experiments:
Assay in all cases: NCI anticancer screen, dose series, 48 h
M14 melanoma = tested on: M14 melanoma
HOP-92 NSCLC = tested on: HOP-92 NSCLC
RXF 393 renal = tested on: RXF 393 renal
SNB-19 CNS = tested on: SNB-19 CNS
HCT-15 colon = tested on: HCT-15 colon
OVCAR-8 ovarian = tested on: OVCAR-8 ovarian
CAKI-1 renal = tested on: CAKI-1 renal
A498 renal = tested on: A498 renal
DU-145 prostate = tested on: DU-145 prostate
T-47D breast = tested on: T-47D breast

SMILES | TGI (M14 melanoma) [µM] | TGI (HOP-92 NSCLC) | TGI (RXF 393 renal) [µM] | TGI (SNB-19 CNS) [µM] | TGI (HCT-15 colon) | TGI (OVCAR-8 ovarian) [µM] | TGI (CAKI-1 renal) [µM] | TGI (A498 renal) [µM] | TGI (DU-145 prostate) [µM] | TGI (T-47D breast) [µM] | GI50 (DU-145 prostate) [µM] | GI50 (T-47D breast) [µM] | GI50 (HCT-15 colon) [µM] | GI50 (OVCAR-8 ovarian) [µM] | GI50 (CAKI-1 renal) [µM] | GI50 (M14 melanoma) [µM] | GI50 (A498 renal) [µM] | GI50 (HOP-92 NSCLC) [µM] | GI50 (RXF 393 renal) [µM] | GI50 (SNB-19 CNS) [µM]
O=C(O)C1=C(CO)Oc2cc3c(cc2C1c1ccc2c(c1)OCO2)OCO3 (configuration not stated) | > 100 | > 100 µM | > 100 | > 100 | > 100 µM | > 100 | > 100 | – | – | – | – | – | – | – | – | – | – | – | – | –
Nc1[nH]c(=O)nc2c1cnn2COCCO | > 100 | > 100 µM | 93.7 | > 100 | > 100 µM | > 100 | > 100 | > 100 | – | – | – | – | – | – | – | – | – | – | – | –
C/C=C\C1OC1(C)c1cc(=O)c2c(C)cc3c(c2o1)C(=O)c1c(O)c(C2CC(C)(N(C)C)C(OC(C)=O)C(C)O2)cc(C2CC(N(C)C)C(O)C(C)O2)c1C3=O (configuration not stated) | 0.00653 | 0.0251 µM | 0.00746 | 0.103 | 0.0291 µM | 0.0177 | 0.0431 | 0.0215 | 0.0912 | 0.0324 | – | – | – | – | – | – | – | – | – | –
CCCCC(CC)C(=O)Oc1ccc(C(=O)c2ccccc2)c(O)c1 (configuration not stated) | > 100 | 59.4 µM | > 100 | > 100 | > 100 µM | > 100 | > 100 | > 100 | > 100 | > 100 | – | – | – | – | – | – | – | – | – | –
c1ccc(-c2cc3nc4ccccc4nc3cc(-c3ccccc3)[nH][nH]2)cc1 | > 100 | > 100 µM | > 100 | > 100 | > 100 µM | > 100 | > 100 | 55.7 | > 100 | > 100 | – | – | – | – | – | – | – | – | – | –
O=P1(Oc2ccc(Cl)cc2Cl)Oc2cc3ccccc3cc2O1 | – | > 100 µM | > 100 | > 100 | > 100 µM | > 100 | > 100 | > 90.5 | – | – | – | – | – | – | – | – | – | – | – | –
C=C(C)[C@@H]1CC[C@]2(C(=O)O)CC[C@]3(C)[C@H](CC[C@@H]4[C@@]5(C)C/C(=C/c6ccco6)C(=O)C(C)(C)[C@@H]5CC[C@]43C)[C@@H]12 | – | – | – | – | 10.5 µM | > 100 | > 100 | – | 12.2 | 33.3 | 3.07 | 3.2 | 2.59 | 3.5 | 3.5 | – | – | – | – | –
O=C1c2cc3c(cc2[C@@H]2C(O)[C@H]4O[C@H]4C4CCN1C42)OCO3 (some centres not stated) | > 37.5 | > 37.5 µM | – | > 37.5 | > 37.5 µM | > 37.5 | > 37.5 | – | – | – | – | – | – | – | – | – | – | – | – | –
CCOC(=O)c1sc2nc(SC)nc3c2c1NC(=O)CN3c1ccc(F)cc1 | > 100 | > 100 µM | 41.8 | > 100 | – | 69.1 | > 100 | 98.7 | 97.9 | – | – | – | – | – | – | – | – | – | – | –
C[C@@]12CC[C@@H](O)C[C@@H]1CC[C@H]1[C@H]2CC[C@@]2(C)[C@H](c3ccc(=O)oc3)CC[C@@]12O | 0.0564 | 0.0571 µM | – | 0.0755 | 0.0292 µM | – | 0.0148 | 0.0445 | 0.0168 | 0.0577 | < 0.01 | < 0.01 | < 0.01 | – | < 0.01 | < 0.01 | < 0.01 | < 0.01 | < 0.01 | < 0.0104
Cc1ccc(C(=O)NC2C(=O)NC(C(C)C)C(=O)N3CCCC3C(=O)N(C)CC(=O)N(C)C(C(C)C)C(=O)OC2C)c2c1Oc1c(c(C(=O)NC3C(=O)NC(C(C)C)C(=O)N4CCCC4C(=O)N(C)CC(=O)N(C)C(C(C)C)C(=O)OC3C)c3nc(-c4ccccc4)c(=O)oc3c1C)N2 (configuration not stated) | – | 0.156 µM and 0.0741 µM | 0.00911 | 21.4 | 0.646 µM and 0.318 µM | 0.0273 | > 100 | 0.00273 | – | 0.168 | – | – | 0.0159 | – | – | – | – | – | – | –

Reference: PubChem BioAssay (NCI)
